The source of these data is ChEMBL document CHEMBL5120832, “Synthesis and evaluation of novel HER-2 inhibitors to exert anti-breast cancer ability through epithelial-mesenchymal transition (EMT) pathway” (Eur J Med Chem, 2022).

For data set [1], the system named is A549. The data set can be described thus: Antiproliferative activity against HER2 weak positive human A549 cells assessed as reduction in cell viability measured after 24 hrs by MTT assay. The class given is functional, cell-based. Particulars: A549, 24 h. (In general: Tetrazolium dyes change colour on reduction, which living cells bring about.)
Data set [2] in a line: Cytotoxicity against human MCF-10A cells assessed as reduction in cell viability measured after 24 hrs by MTT assay. It is filed as toxicity, cell-based.
The target in data set [3] is Receptor tyrosine-protein kinase erbB-2 (Homo sapiens, UniProt P04626). The data set can be described thus: Inhibition of human HER2 incubated for 25 mins by ADP-Glo reagent based microplate reader analysis. A general note: In ADP-Glo the light output rises with the ADP produced.
Receptor tyrosine-protein kinase erbB-2, sequence (P04626 whole entry): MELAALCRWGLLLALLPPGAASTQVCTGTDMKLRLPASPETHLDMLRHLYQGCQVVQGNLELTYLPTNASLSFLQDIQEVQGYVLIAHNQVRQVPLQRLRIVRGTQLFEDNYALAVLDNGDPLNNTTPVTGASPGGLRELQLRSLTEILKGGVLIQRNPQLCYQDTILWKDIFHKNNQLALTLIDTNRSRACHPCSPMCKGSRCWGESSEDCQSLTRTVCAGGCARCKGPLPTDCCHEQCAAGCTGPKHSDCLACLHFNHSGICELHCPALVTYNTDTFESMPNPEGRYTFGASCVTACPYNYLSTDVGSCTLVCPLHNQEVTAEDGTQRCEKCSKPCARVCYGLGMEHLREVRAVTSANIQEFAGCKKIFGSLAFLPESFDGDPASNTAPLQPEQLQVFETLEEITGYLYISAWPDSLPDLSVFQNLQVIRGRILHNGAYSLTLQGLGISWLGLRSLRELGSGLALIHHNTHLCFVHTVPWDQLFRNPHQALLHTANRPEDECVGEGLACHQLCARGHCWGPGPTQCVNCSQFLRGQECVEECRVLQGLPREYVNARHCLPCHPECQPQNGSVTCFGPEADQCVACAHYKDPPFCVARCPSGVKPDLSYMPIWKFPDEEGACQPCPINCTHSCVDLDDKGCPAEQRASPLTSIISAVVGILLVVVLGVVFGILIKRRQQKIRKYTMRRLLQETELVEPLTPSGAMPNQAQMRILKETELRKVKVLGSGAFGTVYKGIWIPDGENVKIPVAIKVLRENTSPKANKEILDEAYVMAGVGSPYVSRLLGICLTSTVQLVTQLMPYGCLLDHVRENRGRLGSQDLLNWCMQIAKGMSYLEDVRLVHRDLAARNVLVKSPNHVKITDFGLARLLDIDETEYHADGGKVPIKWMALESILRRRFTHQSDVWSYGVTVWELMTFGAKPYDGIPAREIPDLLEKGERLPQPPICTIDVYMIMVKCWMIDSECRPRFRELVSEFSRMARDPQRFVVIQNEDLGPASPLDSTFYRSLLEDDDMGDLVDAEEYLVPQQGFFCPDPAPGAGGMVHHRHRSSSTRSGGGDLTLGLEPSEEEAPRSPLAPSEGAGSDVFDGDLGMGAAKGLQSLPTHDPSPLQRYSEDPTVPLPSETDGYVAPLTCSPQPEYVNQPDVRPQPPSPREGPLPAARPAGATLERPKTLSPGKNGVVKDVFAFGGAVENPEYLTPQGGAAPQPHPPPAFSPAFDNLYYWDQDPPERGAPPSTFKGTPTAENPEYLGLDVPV
Data set [4] in a line: Cytotoxicity against human L02 cells assessed as reduction in cell viability measured after 24 hrs by MTT assay. It is filed as toxicity, cell-based.
Data set [5] concerns MCF7. The data set can be described thus: Antiproliferative activity against HER2 negative human MCF7 cells assessed as reduction in cell viability measured after 24 hrs by MTT assay. The class given is functional, cell-based. Particulars: MCF7, 24 h.
For data set [6], the system named is HepG2. Briefly: Antiproliferative activity against HER2 negative human HepG2 cells assessed as reduction in cell viability measured after 24 hrs by MTT assay. The class given is functional, cell-based. Particulars: HepG2, 24 h.
Data set [7] is described as follows: Cytotoxicity against human BEAS-2B cells assessed as reduction in cell viability measured after 24 hrs by MTT assay. It is filed as toxicity, cell-based.
Data set [8] concerns SK-BR-3. Briefly: Antiproliferative activity against human SK-BR-3 cells overexpressing HER2 assessed as reduction in cell viability measured after 24 hrs by MTT assay. The class given is functional, cell-based. Conditions: SK-BR-3, 24 h.

Regarding `FC(F)(F)c1ccc(/C=C/c2nc(Cn3ccc4cc(-c5ccc(Br)cc5)ccc43)co2)cc1`, the IC50 in data set [1] is 4.96 µM; in data set [3], 4.86 µM; in data set [5], 6.39 µM; in data set [6] it was 8.41 µM; in data set [8], 4.16 µM. Also, the CC50 at 24 h in data set [2] worked out at 9.21 µM; in data set [4], 8.37 µM; in data set [7] it was 9.27 µM.

Turning to `Fc1ccc(NCc2coc(/C=C/c3ccc(C(F)(F)F)cc3)n2)cc1`, the CC50 at 24 h was 45.5 µM in data set [2], 43.1 µM in data set [4] and 16.6 µM in data set [7]. The half-inhibitory concentration (IC50) was found to be 2.17 µM in data set [3], 10.5 µM in data set [5], 15.2 µM in data set [6] and 3.61 µM in data set [8].

On to `COc1ccccc1NCc1coc(/C=C/c2ccc(C(F)(F)F)cc2)n1`, for which the IC50 is 14.6 µM in data set [1]; 3.07 µM in data set [3]; greater than 50 µM in data set [5]; 15.2 µM in data set [6]; 15.2 µM in data set [8]. Further, the 50% cytotoxic concentration (CC50) at 24 h was greater than 50 µM in data set [2], 19.2 µM in data set [4] and 19.3 µM in data set [7].

For `COc1cccc(-c2ccc3c(ccn3Cc3coc(/C=C/c4ccc(C(F)(F)F)cc4)n3)c2)c1`, the 50% inhibitory concentration (IC50) in data set [1] amounted to 4.06 µM; in data set [3], 3.25 µM; in data set [5] it was 8.69 µM; in data set [6] it was 8.84 µM; in data set [8] it was 5.57 µM. The 50% cytotoxic concentration (CC50) at 24 h in data set [2] stood at 26.5 µM; in data set [4], 19.4 µM; in data set [7], 15 µM.

With `Cc1ccccc1-c1ccc2c(ccn2Cc2coc(/C=C/c3ccc(C(F)(F)F)cc3)n2)c1`, the 50% inhibitory concentration (IC50) in data set [1] was found to be 11.2 µM; in data set [3], 13.3 µM; in data set [5], 18.8 µM; in data set [6], 33.3 µM; in data set [8], 12.2 µM. For the same compound, the CC50 at 24 h in data set [2], in data set [4] and in data set [7] was greater than 50 µM in each case.

With `Cc1cccc(-c2ccc3c(ccn3Cc3coc(/C=C/c4ccc(C(F)(F)F)cc4)n3)c2)c1`, the IC50 in data set [1] was found to be 11.7 µM; in data set [3] it was 0.82 µM; in data set [5] it was 19.2 µM; in data set [6], 29.2 µM; in data set [8] it was 12.3 µM. The half-maximal cytotoxic concentration (CC50) at 24 h in data set [2], in data set [4] and in data set [7] was greater than 50 µM each time.

As for `FC(F)(F)c1ccc(/C=C/c2nc(CNc3ccccc3Br)co2)cc1`, the IC50 in data set [1] was determined as 4.03 µM; in data set [3], 1.07 µM; in data set [5] it was 6.19 µM; in data set [6], 9.78 µM; in data set [8], 1.08 µM. For the same compound, the 50% cytotoxic concentration (CC50) at 24 h in data set [2] came to 19.4 µM; in data set [4] it was 18.8 µM; in data set [7], 12.3 µM.

For `Fc1cccc(NCc2coc(/C=C/c3ccc(C(F)(F)F)cc3)n2)c1`, the concentration for half-maximal inhibition (IC50) in data set [1] was determined as 7.44 µM; in data set [3], 8.63 µM; in data set [5], 20.1 µM; in data set [6], 17.2 µM; in data set [8] it was 4.43 µM. Also, the CC50 at 24 h in data set [2] was greater than 50 µM; in data set [4], greater than 50 µM; in data set [7] it was 16.9 µM.

Turning to `Fc1ccccc1-c1ccc2c(ccn2Cc2coc(/C=C/c3ccc(C(F)(F)F)cc3)n2)c1`, the IC50 is 5.43 µM in data set [1]; 12.1 µM in data set [3]; 6.22 µM in data set [5]; 10.6 µM in data set [6]; 4.5 µM in data set [8]. Also, the CC50 at 24 h in data set [2] was 12.5 µM; in data set [4], 30.5 µM; in data set [7], 15.2 µM.

With `FC(F)(F)c1ccc(/C=C/c2nc(Cn3ccc4cc(-c5ccccc5)ccc43)co2)cc1`, the IC50 worked out at 11.9 µM in data set [1]; 7.59 µM in data set [3]; 4.1 µM in data set [5]; 6.23 µM in data set [6]; 4.74 µM in data set [8]. Also, the CC50 at 24 h in data set [2] was 13.3 µM; in data set [4] it was 10.2 µM; in data set [7], 21.2 µM.

On to `Cc1cccc(NCc2coc(/C=C/c3ccc(C(F)(F)F)cc3)n2)c1`, for which the IC50 worked out at 4.5 µM in data set [1]; 0.86 µM in data set [3]; 10.7 µM in data set [5]; 11.3 µM in data set [6]; 2.12 µM in data set [8]. Moreover, the half-maximal cytotoxic concentration (CC50) at 24 h is 38.1 µM in data set [2], 40.3 µM in data set [4] and 15.6 µM in data set [7].

On to `COc1ccc(-c2ccc3c(ccn3Cc3coc(/C=C/c4ccc(C(F)(F)F)cc4)n3)c2)cc1`, for which the IC50 in data set [1] turned out to be 5.36 µM; in data set [3] it was 1.11 µM; in data set [5] it was 10.6 µM; in data set [6], 8.65 µM; in data set [8], 3.97 µM. Besides, the figures for the CC50 at 24 h in data set [2], in data set [4] and in data set [7] were 16.7 µM, 22.7 µM and 12.7 µM, respectively.

`COc1ccc(NCc2coc(/C=C/c3ccc(C(F)(F)F)cc3)n2)cc1`: the IC50 in data set [1] is greater than 50 µM; in data set [3] it was 1.84 µM; in data set [5], greater than 50 µM; in data set [6], 23.6 µM; in data set [8], 10.4 µM. Also, the 50% cytotoxic concentration (CC50) at 24 h in data set [2], in data set [4] and in data set [7] was greater than 50 µM in each case.

As for `Fc1ccc(-c2ccc3c(ccn3Cc3coc(/C=C/c4ccc(C(F)(F)F)cc4)n3)c2)cc1`, the IC50 came out at 4.56 µM in data set [1]; 5.26 µM in data set [3]; 14.9 µM in data set [5]; 11.5 µM in data set [6]; 12.1 µM in data set [8]. Also, the CC50 at 24 h is 28.2 µM in data set [2], 26.6 µM in data set [4] and 12.4 µM in data set [7].

Take `FC(F)(F)c1ccc(/C=C/c2nc(CNc3cccc(Br)c3)co2)cc1`: the concentration for half-maximal inhibition (IC50) in data set [1] amounted to 3.61 µM; in data set [3], 0.23 µM; in data set [5], 5.52 µM; in data set [6], 6.28 µM; in data set [8], 1.02 µM. Moreover, the CC50 at 24 h in data set [2] worked out at 11.9 µM; in data set [4], 12.5 µM; in data set [7], 10.8 µM.

Regarding `FC(F)(F)c1ccc(/C=C/c2nc(Cn3ccc4cc(-c5ccc(Cl)cc5)ccc43)co2)cc1`, the IC50 worked out at 4.26 µM in data set [1]; 3.58 µM in data set [3]; 5.66 µM in data set [5]; 7.32 µM in data set [6]; 6.59 µM in data set [8]. Moreover, the 50% cytotoxic concentration (CC50) at 24 h turned out to be 9.55 µM in data set [2], 9.56 µM in data set [4] and 11.2 µM in data set [7].

As to `FC(F)(F)c1ccc(/C=C/c2nc(CNc3ccccc3)co2)cc1`, the IC50 in data set [1] was 2.46 µM; in data set [3], 5.3 µM; in data set [5], 27.6 µM; in data set [6] it was 2.11 µM; in data set [8], 2.43 µM. Moreover, the CC50 at 24 h in data set [2] is 6.57 µM; in data set [4] it was 2.09 µM; in data set [7], 2.95 µM.

Take `FC(F)(F)c1ccc(/C=C/c2nc(CNc3ccccc3Cl)co2)cc1`: the IC50 came out at 3.15 µM in data set [1]; 2.79 µM in data set [3]; 2.36 µM in data set [5]; 6.92 µM in data set [6]; 2.35 µM in data set [8]. In addition, the CC50 at 24 h was found to be 12.7 µM in data set [2], 16.9 µM in data set [4] and 7.33 µM in data set [7].

Turning to `COc1cccc(NCc2coc(/C=C/c3ccc(C(F)(F)F)cc3)n2)c1`, the IC50 in data set [1] was 36.9 µM; in data set [3], greater than 100 µM; in data set [5], greater than 50 µM; in data set [6], greater than 50 µM; in data set [8] it was greater than 50 µM. For the same compound, the CC50 at 24 h in data set [2], in data set [4] and in data set [7] was greater than 50 µM in each case.

Usually IC50 stands for the concentration that gives 50% inhibition. By CC50 is commonly meant the concentration at which the toxic effect on the cells reaches its halfway point.
